Source: ChEMBL document CHEMBL1201862, “PubChem BioAssay data set” (2004)
Active and inactive are the calls of the source. For most assays here, no stated cut-off is given here; in the data, actives have a measured EC50 and inactives only a lower limit.

Columns and labels:
Protein RecA = molecular target: T1, Protein RecA (Mycobacterium tuberculosis, UniProt P9WHJ3); test: Fluorescence Cell-Free Homogeneous Dose Retest to Identify Inhibitors of RecA-Intein Splicing Activity. [Related pubchem assays (depositor defined):AID2097, AID2223, AID489010, AID492950]; format: functional
T1 sequence (P9WHJ3 whole entry): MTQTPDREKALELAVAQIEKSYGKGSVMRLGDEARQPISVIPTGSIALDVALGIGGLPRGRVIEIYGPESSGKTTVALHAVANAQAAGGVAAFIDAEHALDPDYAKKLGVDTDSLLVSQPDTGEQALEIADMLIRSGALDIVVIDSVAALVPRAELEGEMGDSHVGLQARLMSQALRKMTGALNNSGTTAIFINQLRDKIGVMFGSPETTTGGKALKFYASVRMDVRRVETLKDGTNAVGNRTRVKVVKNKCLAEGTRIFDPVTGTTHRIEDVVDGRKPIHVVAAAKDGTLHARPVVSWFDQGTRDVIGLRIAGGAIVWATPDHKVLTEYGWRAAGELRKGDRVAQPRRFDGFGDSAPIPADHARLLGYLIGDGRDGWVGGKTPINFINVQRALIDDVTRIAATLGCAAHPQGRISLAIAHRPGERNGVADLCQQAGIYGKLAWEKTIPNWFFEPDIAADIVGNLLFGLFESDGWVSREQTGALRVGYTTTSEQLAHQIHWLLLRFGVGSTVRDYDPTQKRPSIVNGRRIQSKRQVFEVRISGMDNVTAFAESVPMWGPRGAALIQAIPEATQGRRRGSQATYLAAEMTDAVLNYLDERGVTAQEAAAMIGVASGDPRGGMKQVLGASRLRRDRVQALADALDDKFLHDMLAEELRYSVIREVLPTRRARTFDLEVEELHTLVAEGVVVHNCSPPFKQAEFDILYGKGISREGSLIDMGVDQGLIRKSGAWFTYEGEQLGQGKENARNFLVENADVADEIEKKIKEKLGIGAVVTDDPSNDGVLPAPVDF

[1] = molecular target: T2, Replicative DNA helicase DnaB (Mycobacterium tuberculosis, UniProt P9WMR3); test: DnaB intein splicing inhibitors, dose response, biochemical, cell-free fluorescence (AID 449749); format: functional
T2 sequence (P9WMR3 whole entry): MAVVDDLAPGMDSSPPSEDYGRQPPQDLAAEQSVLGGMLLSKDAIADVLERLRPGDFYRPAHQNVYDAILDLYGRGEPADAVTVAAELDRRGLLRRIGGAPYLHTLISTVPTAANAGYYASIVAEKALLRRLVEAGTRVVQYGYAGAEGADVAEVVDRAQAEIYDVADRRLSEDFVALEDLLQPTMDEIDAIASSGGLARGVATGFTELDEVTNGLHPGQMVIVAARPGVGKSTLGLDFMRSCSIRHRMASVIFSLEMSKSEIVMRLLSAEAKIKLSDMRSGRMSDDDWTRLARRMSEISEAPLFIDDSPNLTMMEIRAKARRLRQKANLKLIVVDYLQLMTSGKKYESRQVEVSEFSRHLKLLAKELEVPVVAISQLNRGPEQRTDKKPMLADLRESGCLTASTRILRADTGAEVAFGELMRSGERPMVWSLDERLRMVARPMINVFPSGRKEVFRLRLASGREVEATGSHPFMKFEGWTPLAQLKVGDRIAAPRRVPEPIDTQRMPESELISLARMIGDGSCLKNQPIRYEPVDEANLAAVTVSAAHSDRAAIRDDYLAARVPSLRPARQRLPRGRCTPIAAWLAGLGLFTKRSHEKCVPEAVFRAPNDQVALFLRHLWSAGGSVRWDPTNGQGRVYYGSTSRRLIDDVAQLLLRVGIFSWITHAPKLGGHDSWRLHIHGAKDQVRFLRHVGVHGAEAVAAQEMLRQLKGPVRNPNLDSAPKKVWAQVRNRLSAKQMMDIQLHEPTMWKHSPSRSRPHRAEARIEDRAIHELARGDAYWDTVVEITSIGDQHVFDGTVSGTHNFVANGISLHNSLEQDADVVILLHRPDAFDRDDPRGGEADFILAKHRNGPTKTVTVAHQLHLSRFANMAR

Cytochrome P450 2D6 = Cytochrome P450 2D6 (Homo sapiens, UniProt P10635);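 further: CYP2D6 member of a cytochrome P450 panel assay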
Cytochrome P450 2D6, sequence (P10635 whole entry): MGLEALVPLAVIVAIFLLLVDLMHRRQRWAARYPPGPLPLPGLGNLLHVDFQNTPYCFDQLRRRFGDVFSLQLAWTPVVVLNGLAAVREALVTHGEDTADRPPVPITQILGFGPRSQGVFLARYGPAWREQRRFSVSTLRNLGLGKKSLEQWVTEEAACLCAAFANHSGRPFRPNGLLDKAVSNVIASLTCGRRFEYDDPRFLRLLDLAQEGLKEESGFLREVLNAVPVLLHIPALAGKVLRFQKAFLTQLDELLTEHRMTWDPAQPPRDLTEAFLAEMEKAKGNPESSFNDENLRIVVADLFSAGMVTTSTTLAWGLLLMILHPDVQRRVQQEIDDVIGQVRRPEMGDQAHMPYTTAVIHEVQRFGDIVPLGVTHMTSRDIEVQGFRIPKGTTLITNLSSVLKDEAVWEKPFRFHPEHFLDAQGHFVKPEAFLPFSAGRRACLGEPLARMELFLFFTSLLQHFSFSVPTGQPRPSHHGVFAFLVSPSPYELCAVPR

Large T antigen = Large T antigen (Simian virus 40, UniProt P03070); format: functional, Betapolyomavirus macacae;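 further: Confirmatory-stage PubChem screen for compounds that inhibit SV40 T antigen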
Large T antigen, sequence (P03070 whole entry): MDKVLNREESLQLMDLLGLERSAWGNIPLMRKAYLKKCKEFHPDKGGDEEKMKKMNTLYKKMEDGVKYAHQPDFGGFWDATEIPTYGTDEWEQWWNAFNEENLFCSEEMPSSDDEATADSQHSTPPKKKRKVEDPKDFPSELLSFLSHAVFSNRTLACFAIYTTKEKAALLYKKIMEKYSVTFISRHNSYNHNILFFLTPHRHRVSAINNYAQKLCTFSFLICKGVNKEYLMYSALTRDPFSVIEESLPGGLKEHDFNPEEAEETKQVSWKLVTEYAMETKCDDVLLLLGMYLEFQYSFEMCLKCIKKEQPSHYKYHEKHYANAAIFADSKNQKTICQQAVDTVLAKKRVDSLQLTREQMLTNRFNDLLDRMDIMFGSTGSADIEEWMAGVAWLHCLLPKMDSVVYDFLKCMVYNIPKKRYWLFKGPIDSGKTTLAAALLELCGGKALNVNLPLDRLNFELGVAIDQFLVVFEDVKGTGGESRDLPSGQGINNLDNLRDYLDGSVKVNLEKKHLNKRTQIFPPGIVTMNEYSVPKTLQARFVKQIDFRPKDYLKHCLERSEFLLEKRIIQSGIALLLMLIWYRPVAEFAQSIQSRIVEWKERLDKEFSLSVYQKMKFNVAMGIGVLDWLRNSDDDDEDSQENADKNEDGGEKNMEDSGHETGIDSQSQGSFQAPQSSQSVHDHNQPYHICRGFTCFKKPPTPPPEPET

[2] = molecular target: T3, Corticotropin-releasing factor receptor 2/Corticotropin-releasing factor-binding protein (Homo sapiens, UniProt P24387+Q13324); test: activators of CRF receptor 2 with binding protein – uHTS hits, confirmation (AID 602473); format: functional; conditions: read-out: EC50_Mean
T3 sequence (Q13324 whole entry): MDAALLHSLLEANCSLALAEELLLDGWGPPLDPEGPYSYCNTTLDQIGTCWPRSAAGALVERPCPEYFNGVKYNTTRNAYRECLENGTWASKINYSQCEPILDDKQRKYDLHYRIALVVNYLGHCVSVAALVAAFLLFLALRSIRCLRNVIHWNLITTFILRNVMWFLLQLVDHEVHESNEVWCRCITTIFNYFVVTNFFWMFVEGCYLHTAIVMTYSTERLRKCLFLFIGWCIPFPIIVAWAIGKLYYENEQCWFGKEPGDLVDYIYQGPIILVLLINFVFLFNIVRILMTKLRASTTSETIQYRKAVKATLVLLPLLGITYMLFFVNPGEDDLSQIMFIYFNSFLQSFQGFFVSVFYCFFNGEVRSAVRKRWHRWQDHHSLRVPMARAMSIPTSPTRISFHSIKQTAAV
T3 sequence (P24387 whole entry): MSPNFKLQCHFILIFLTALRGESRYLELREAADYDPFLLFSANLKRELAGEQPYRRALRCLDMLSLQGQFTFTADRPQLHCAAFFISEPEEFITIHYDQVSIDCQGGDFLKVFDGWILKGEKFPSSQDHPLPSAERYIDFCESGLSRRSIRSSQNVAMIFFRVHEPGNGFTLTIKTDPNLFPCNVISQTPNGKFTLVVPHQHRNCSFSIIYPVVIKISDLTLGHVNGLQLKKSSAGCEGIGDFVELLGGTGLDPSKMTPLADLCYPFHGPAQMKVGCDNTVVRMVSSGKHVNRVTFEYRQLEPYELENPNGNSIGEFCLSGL

[3] = inhibitors of intracellular T. cruzi replication, confirmation, NIH3T3 host cells, beta-gal luminescence (AID 2044); format: functional, cell-based;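 further: intracellular parasites grown in NIH/3T3 mouse fibroblasts as host cells; luminescent beta-galactosidase reporter signal from transgenic T. cruzi replicating inside host cells; inhibitors lower the luminescence signal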
[4] = cytotoxicity toward NIH3T3 fibroblasts, dose response, counter-screen, cell-based, ATP luminescence, mouse fibroblasts (AID 2010); format: functional;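 further: cells exposed to compound for about 90 hours before reading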

CC1=NNC(=O)C1C(c1ccccc1)C(C#N)C#N (stereo not given)
EC50 (Protein RecA): 3.84 µM (active) | AC50 [1]: 5.23 µM (active)

COc1ccc([C@@H](C)c2cc3c(cc2O)OCO3)cc1
AC50 (Cytochrome P450 2D6): 3.98 µM (inconclusive)

CCC(=O)Oc1ccc(C(=O)Nc2cccc(C(=O)c3ccccc3)c2)cc1
EC50 (Protein RecA): 13.8 µM (active) | AC50 [1]: 13.2 µM (active)

O=C1/C(=C/c2ccncc2)SC(=S)N1Nc1ccccc1
IC50 (Large T antigen): 12.7 µM (active)

Cc1n[nH]c(Nc2ccc(O)cc2)c1[N+](=O)[O-]
IC50 (Large T antigen): 7.06 µM (active)

Cc1ccc(-[n+]2cc(=O)o[nH]2)cc1
AC50 (Cytochrome P450 2D6): 1.58 µM (inconclusive)

COC(=O)c1c(NC(=O)CN2CCC3(O)CCCCC3C2c2ccccc2OC)sc(C)c1C (stereo not given)
EC50 [2]: > 53 µM (inactive)

Cc1ccc(S(=O)(=O)CCC(=O)c2cccc([N+](=O)[O-])c2)cc1
EC50 [3]: 2.47 µM (active) | EC50 [4]: > 60 µM (not active)

CC(C)(C)c1[nH]nc2c1C(c1ccoc1)C(C#N)=C(N)O2 (stereo not given)
EC50 (Protein RecA): 3.58 µM (active) | AC50 [1]: 20.4 µM (active)

CC(=O)Nc1ccc(NC(=O)CSc2ncc(C(=O)Nc3ccc(F)cc3)c(=O)n2C)cc1
EC50 (Protein RecA): > 380 µM (inconclusive) | AC50 [1]: > 380 µM (inactive)

CCOC(=O)c1c(NC(=O)CSc2nnnn2C)sc(C)c1C
AC50 (Cytochrome P450 2D6): 25.1 µM (inconclusive)

CC(C)N1CCc2c(sc(NC(=O)c3ccc(S(=O)(=O)N4CCOCC4)cc3)c2C#N)C1
EC50 [2]: 5.69 µM (active)

COc1ccc2[nH]c(C)c(CCN(Cc3cccs3)C(S)=Nc3cccc(F)c3)c2c1
EC50 [3]: 3.35 µM (active) | EC50 [4]: > 60 µM (not active)

O=C1COC(c2ccccc2O)=NN1CCCN1CCCC1
AC50 (Cytochrome P450 2D6): 3.16 µM (inconclusive)

C=C(C)COc1ccc(-c2ncncc2-c2ccccc2OC)c(O)c1
EC50 [3]: 0.544 µM (active) | EC50 [4]: > 60 µM (not active)

Cc1cc(C(=O)CN2C(=O)c3ccccc3C2=O)c(C)n1C1CC1
EC50 (Protein RecA): > 380 µM (inactive) | AC50 [1]: > 380 µM (inactive)

Cn1c(=O)c2c(nc(S)n2Cc2ccc(Cl)cc2)n(C)c1=O
IC50 (Large T antigen): 16.2 µM (active)

COc1ccccc1CNc1ncncc1-c1cccnc1
AC50 (Cytochrome P450 2D6): 20 µM (inconclusive)

COc1cc(CNc2ccc(N3CCOCC3)cc2)ccc1OCC(=O)NC(C)(C)C
IC50 (Large T antigen): 4.16 µM (active)

CCCc1[nH][nH]c(=O)c1C(c1cccc(Cl)c1)C(C#N)C#N (stereo not given)
EC50 (Protein RecA): 0.755 µM (active) | AC50 [1]: > 380 µM (inactive)

COC(=O)[C@@]1(Cc2ccccc2)[C@H]2c3cc(C(=O)N(C)C)n(Cc4ccsc4Br)c3C[C@H]2CN1C(=O)c1ccccc1
AC50 (Cytochrome P450 2D6): 31.6 µM (inconclusive)

CCN1C(=O)C2(C(C(=O)c3cc4ccccc4o3)=C(O)C(=O)N2CCCN(C)C)c2ccccc21 (stereo not given)
IC50 (Large T antigen): 52.4 µM (active)

C=CCn1c(SCC(C)=O)nc2scc(-c3ccco3)c2c1=O
IC50 (Large T antigen): 60.2 µM (active)

Cc1ccccc1-n1nc2c(c1NC(=O)c1ccc(S(=O)(=O)N(C)C)cc1)CSC2
AC50 (Cytochrome P450 2D6): 28.2 µM (inconclusive)

C/C=C/C(=O)Nc1cccc(C2=NOC3(C2)C[C@@H](C(N)=O)N(C(=O)c2cc([N+](=O)[O-])cc([N+](=O)[O-])c2C)C3)c1 (stereo not given in full)
EC50 [2]: > 53 µM (inactive)

Cc1ccccc1-c1cncnc1Nc1ccc(F)cc1
AC50 (Cytochrome P450 2D6): 39.8 µM (inconclusive)

COc1cc(/C=C2/C(=O)N(c3ccccc3)N=C2C)ccc1OS(=O)(=O)c1ccccc1
EC50 (Protein RecA): 1.5 µM (active) | AC50 [1]: 1.94 µM (active)

CC(C)c1ccc(C2C3=C(CC(C)(C)CC3=O)N=C3C2=C(O)c2ccccc23)cc1 (stereo not given)
EC50 [3]: 1.68 µM (active) | EC50 [4]: > 60 µM (not active)

Cc1ccc(-n2nnnc2CCl)cc1
EC50 (Protein RecA): 7.8 µM (active) | AC50 [1]: 54.2 µM (active)

O=C(Oc1ccc(Br)cc1C(=S)N1CCCCC1)c1cc([N+](=O)[O-])cc([N+](=O)[O-])c1
EC50 (Protein RecA): 1.71 µM (active) | AC50 [1]: 23.9 µM (active)

N#C/C(=C(/O)c1ccc([N+](=O)[O-])s1)c1nc2ccccc2[nH]1
EC50 [3]: 0.233 µM (active) | EC50 [4]: 4.89 µM (active)

CCOc1ccc(C(c2c(C)n[nH]c2O)c2c(C)n[nH]c2O)cc1OCC
EC50 (Protein RecA): 0.183 µM (active) | AC50 [1]: 0.412 µM (active)

Cc1ccc(-c2nn(-c3cc(N4CCNCC4)ccc3[N+](=O)[O-])c(=O)c3ccccc23)cc1
EC50 [3]: 2.04 µM (active) | EC50 [4]: > 60 µM (inconclusive)

COc1ccc(N2CCC(CN=C(S)Nc3c(C)cccc3C)C2)cc1 (stereo not given)
IC50 (Large T antigen): 14.6 µM (active) | EC50 [3]: 2.76 µM (active) | EC50 [4]: > 60 µM (not active)

CCN(C(=O)CSc1ncccc1C(=O)Oc1cccc([N+](=O)[O-])c1)c1cccc(C)c1
EC50 (Protein RecA): > 380 µM (inconclusive) | AC50 [1]: 3.43 µM (active)

Nc1ccc(O)c2ccccc12
EC50 (Protein RecA): 10.1 µM (active) | AC50 [1]: 16 µM (active)

CCN1C(=O)C(=CC=CN(C)c2ccccc2)SC1=S
EC50 [2]: 6.59 µM (active)

CN1CCN(/N=C/c2ccc(-c3ccc([N+](=O)[O-])cc3Cl)o2)CC1
EC50 [3]: 0.474 µM (active) | EC50 [4]: > 60 µM (inconclusive)

COc1ccccc1/N=C/C=C1OC(C)(C)C(C)(C)O1
EC50 [3]: 3.65 µM (active) | EC50 [4]: > 60 µM (not active)

COc1cc(/C=N/NC(=O)CC#N)cc(Br)c1O
IC50 (Large T antigen): 9.57 µM (active)

CCOC(=O)N/N=C\c1ccc(OC(=O)c2ccco2)cc1
EC50 (Protein RecA): 14.5 µM (active) | AC50 [1]: 17 µM (active)

COc1cc(/C=N/NC(=O)C(=O)NCc2ccco2)ccc1O
IC50 (Large T antigen): 12.9 µM (active)

CCOC(=O)/C(=N\Nc1ccccc1Cl)N1CCN(c2ccccc2OC)CC1
EC50 [3]: 1.18 µM (active) | EC50 [4]: 33.7 µM (active)

NS(=O)(=O)c1ccc(/N=C/c2c(O)oc3ccccc3c2=O)cc1
EC50 (Protein RecA): > 380 µM (inactive) | AC50 [1]: > 380 µM (inactive)

CCCN1CCC[C@@H]2Cc3nc(N)ncc3C[C@H]21 [QUINELORANE]
AC50 (Cytochrome P450 2D6): 25.1 µM (inconclusive)
